Data on 34 compounds can be found in patent publication US11161855B2, “Tricyclic fused thiophene derivatives as JAK inhibitors” (Incyte Corporation, priority 2012, dated 2021).

The assay deals with human JAK1 (a.a. 837-1142). Kind of assay: In vitro JAK kinase assay (HTRF), JAK1. In kind it is biochemical. The settings on record: ratio of IC50s, 1 mM ATP. As to the method: Compounds herein were tested for inhibitory activity of JAK targets according to the following in vitro assay described in Park et al., Analytical Biochemistry 1999, 269, 94-104. The catalytic domains of human JAK1 (a.a. 837-1142), JAK2 (a.a. 828-1132) and JAK3 (a.a. 781-1124) were expressed using baculovirus in insect cells and purified. The catalytic activity of JAK1, JAK2 or JAK3 was assayed by measuring the phosphorylation of a biotinylated peptide. The phosphorylated peptide was detected by homogenous time resolved fluorescence (HTRF). IC50s of compounds were measured for each kinase in the 40 μL reactions that contain the enzyme, ATP and 500 nM peptide in 50 mM Tris (pH 7.8) buffer with 100 mM NaCl, 5 mM DTT, and 0.1 mg/mL (0.01%) BSA. For the 1 mM IC50 measurements, ATP concentration in the reactions was 1 mM. Reactions were carried out at room temperature for 1 hour and then stopped with 20 μL 45 mM EDTA, 300 nM SA-APC, 6 nM Eu-Py20 in assay buffer (Perkin Elmer, Boston, Mass.). Binding to the Europium labeled antibody took place for 40 minutes and HTRF signal was measured on a PHERA star plate reader (BMG, Cary, N.C.). The Example compounds were each tested in the Example A assay (see Table 1 for data for the compounds of the examples as tested by the assay of Example A at 1 mM ATP).
(TR-FRET usually uses a lanthanide donor and a delayed reading to cut background.)
With `C[C@@H](O)c1nc2cnc3ccsc3c2n1C1CCC(O)(CC#N)CC1` (single isomer, unassigned) [24 (first peak)], the JAK2/JAK1 is given as greater than 10. Turning to `C[C@@H](O)c1nc2cnc3ccsc3c2n1C1CCC(O)(CC#N)CC1` (single isomer, unassigned) [24 (second peak)], the JAK2/JAK1 is on record as greater than 10. Regarding `C[C@@H](O)c1nc2cnc3ccsc3c2n1C1CCC(NCCC#N)CC1` (single isomer, unassigned) [30 (first peak)], the JAK2/JAK1 is given as greater than 2.

Regarding `C[C@@H](O)c1nc2cnc3ccsc3c2n1C1CCC(NCCC#N)CC1` (single isomer, unassigned) [30 (second peak)], the JAK2/JAK1 was greater than 10. The result for `Cc1nc2cnc3ccsc3c2n1[C@H]1CC[C@H](CC#N)[C@@H](O)C1` (single isomer, unassigned) [41 (first peak)] reads greater than 10; that for `N#CCC1CCC(CO)(n2cnc3cnc4ccsc4c32)CC1` (single isomer, unassigned) [72 (second peak), [4-(Hydroxymethyl)-4-(1H-imidazo[4,5-d]thieno[3,2-b]pyridin-1-yl)cyclohexyl]acetonitrile], greater than 5. The figure for `C[C@@H](O)c1nc2cnc3ccsc3c2n1C1CCNCC1F` (stereo partly drawn) [9 (2nd peak), (1R)-1-[1-(3-Fluoropiperidin-4-yl)-1H-imidazo[4,5-d]thieno[3,2-b]pyridin-2-yl]ethanol] is greater than 10; for `C[C@@H](O)c1nc2cnc3ccsc3c2n1[C@H]1CCCOC1` [Example 1, (1R)-1-{1-[(3S)-Tetrahydro-2H-pyran-3-yl]-1H-imidazo[4,5-d]thieno[3,2-b]pyridin-2-yl}ethanol] it is greater than 3. The figure for `C[C@@H](O)c1nc2cnc3ccsc3c2n1[C@H]1CC[C@H](CC#N)CC1` [Example 2, (trans-4-{2-[(1R)-1-Hydroxyethyl]-1H-imidazo[4,5-d]thieno[3,2-b]pyridin-1-yl}cyclohexyl)acetonitrile] is greater than 10. `C[C@@H](O)c1nc2cnc3ccsc3c2n1[C@H]1CC[C@H](O)CC1` [Example 3, trans-4-{2-[(1R)-1-Hydroxyethyl]-1Z-imidazo[4,5-d]thieno[3,2-b]pyridin-1-yl}cyclohexanol]: the JAK2/JAK1 is listed as greater than 10. The figure for `C[C@@H](O)c1nc2cnc3ccsc3c2n1[C@H]1CC[C@H](NCC(F)(F)F)CC1` [Example 4, (1R)-1-(1-{trans-4-[(2,2,2-Trifluoroethyl)amino]cyclohexyl}-1H-imidazo[4,5-d]thieno[3,2-b]pyridin-2-yl)ethanol] is greater than 10; for `C[C@@H](O)c1nc2cnc3ccsc3c2n1[C@H]1CC[C@H](CCS(C)(=O)=O)CC1` [Example 5, (1R)-1-(1-{trans-4-[2-(Methylsulfonyl)ethyl]cyclohexyl}-1H-imidazo[4,5-d]thieno[3,2-b]pyridin-2-yl)ethanol] it is greater than 10. Turning to `C[C@@H](O)c1nc2cnc3ccsc3c2n1[C@H]1CC[C@@H](n2cncn2)CC1` [Example 6, (1R)-1-{1-[cis-4-(1H-1,2,4-Triazol-1-yl)cyclohexyl]-1H-imidazo[4,5-d]thieno[3,2-b]pyridin-2-yl}ethanol], the JAK2/JAK1 was greater than 6.

Consider `C[C@@H](O)c1nc2cnc3ccsc3c2n1[C@H]1CC[C@@H](C#N)CC1` [Example 7, cis-4-{2-[(1R)-1-Hydroxyethyl]-1H-imidazo[4,5-d]thieno[3,2-b]pyridin-1-yl}cyclohexanecarbonitrile], for which the JAK2/JAK1 was greater than 10. Turning to `C[C@@H](O)c1nc2cnc3ccsc3c2n1[C@H]1CC[C@H](CCC#N)CC1` [Example 8, 3-(trans-4-{2-[(1R)-1-Hydroxyethyl]-1H-imidazo[4,5-d]thieno[3,2-b]pyridin-1-yl}cyclohexyl)propanenitrile], the JAK2/JAK1 is given as greater than 10. Take `C[C@@H](O)c1nc2cnc3ccsc3c2n1[C@H]1CC[C@H](CC#N)CC1.Cl` [Example 10, (trans-4-{2-[(1R)-1-Hydroxyethyl]-1H-imidazo[4,5-d]thieno[3,2-b]pyridin-1-yl}cyclohexyl)acetonitrile HCl Salt]: the JAK2/JAK1 was greater than 10. In the case of `C[C@@H](O)c1nc2cnc3ccsc3c2n1[C@H]1CC[C@H](CO)CC1` [Example 11, (1R)-1-{1-[trans-4-(Hydroxymethyl)cyclohexyl]-1H-imidazo[4,5-d]thieno[3,2-b]pyridin-2-yl}ethanol], the JAK2/JAK1 is greater than 10. `C[C@@H](O)c1nc2cnc3ccsc3c2n1[C@H]1CC[C@H](CF)CC1` [Example 12, (1R)-1-{1-[trans-4-(Fluoromethyl)cyclohexyl]-1H-imidazo[4,5-d]thieno[3,2-b]pyridin-2-yl}ethanol]: the JAK2/JAK1 is greater than 10.

Consider `C[C@@H](O)c1nc2cnc3ccsc3c2n1C1CCCCC1` [Example 13, (1R)-1-(1-Cyclohexyl-1H-imidazo[4,5-d]thieno[3,2-b]pyridin-2-yl)ethanol], for which the JAK2/JAK1 is recorded as greater than 10. The figure for `CNS(=O)(=O)C[C@H]1CC[C@H](n2c([C@@H](C)O)nc3cnc4ccsc4c32)CC1` [Example 14, 1-(trans-4-{2-[(1R)-1-hydroxyethyl]-1H-imidazo[4,5-d]thieno[3,2-b]pyridin-1-yl}cyclohexyl)-N-methylmethanesulfonamide] is greater than 5; for `C[C@@H](O)c1nc2cnc3ccsc3c2n1C1CCN(CC(F)(F)F)CC1` [Example 15, (1R)-1-{1-[1-(2,2,2-Trifluoroethyl)piperidin-4-yl]-1H-imidazo[4,5-d]thieno[3,2-b]pyridin-2-yl}ethanol] it is greater than 9; for `C[C@@H](O)c1nc2cnc3ccsc3c2n1C1CCN(CCC#N)CC1` [Example 16, 3-(4-{2-[(1R)-1-Hydroxyethyl]-1H-imidazo[4,5-d]thieno[3,2-b]pyridin-1-yl}piperidin-1-yl)propanenitrile] it is greater than 10.

For the compound `N#CC[C@H]1CC[C@H](n2c(CO)nc3cnc4ccsc4c32)CC1` [Example 17, {trans-4-[2-(Hydroxymethyl)-1H-imidazo[4,5-d]thieno[3,2-b]pyridin-1-yl]cyclohexyl}acetonitrile], the JAK2/JAK1 is recorded as greater than 10. The result for `CS(=O)(=O)NCc1nc2cnc3ccsc3c2n1[C@H]1CC[C@H](CC#N)CC1` [Example 18, N-({1-[trans-4-(Cyanomethyl)cyclohexyl]-1H-imidazo[4,5-d]thieno[3,2-b]pyridin-2-yl}methyl)methanesulfonamide] reads greater than 10. The figure for `C[C@@H](O)c1nc2cnc3ccsc3c2n1[C@H]1CCC(CO)OC1` (stereo partly drawn) [Example 19, (1R)-1-{1-[(3S)-6-(Hydroxymethyl)tetrahydro-2H-pyran-3-yl]-1H-imidazo[4,5-d]thieno[3,2-b]pyridin-2-yl}ethanol] is greater than 10; for `C[C@@H](O)c1nc2cnc3ccsc3c2n1[C@H]1CC[C@H](CC#N)OC1` [Example 20, ((2R,5S)-5-{2-[(1R)-1-Hydroxyethyl]-1H-imidazo[4,5-d]thieno[3,2-b]pyridin-1-yl}tetrahydro-2H-pyran-2-yl)acetonitrile] it is greater than 10.

As to `C[C@@H](O)c1nc2cnc3ccsc3c2n1[C@H]1CC[C@@H](CC#N)OC1` [Example 21, ((2S,5S)-5-{2-[(1R)-1-Hydroxyethyl]-1H-imidazo[4,5-d]thieno[3,2-b]pyridin-1-yl}tetrahydro-2H-pyran-2-yl)acetonitrile], the JAK2/JAK1 is reported as greater than 10. `CS(=O)(=O)NCc1nc2cnc3ccsc3c2n1[C@H]1CC2CCC1C2` (stereo partly drawn) [Example 22, N-((1-((2S)-Bicyclo[2.2.1]heptan-2-yl)-1H-imidazo[4,5-d]thieno[3,2-b]pyridin-2-yl)methyl)methanesulfonamide]: the JAK2/JAK1 is recorded as greater than 4.

Consider `C[C@@H](O)c1cc2cnc3ccsc3c2n1[C@H]1CC[C@H](CC#N)CC1` [Example 23, (trans-4-{7-[(1R)-1-Hydroxyethyl]-8H-pyrrolo[2,3-d]thieno[3,2-b]pyridin-8-yl}cyclohexyl)acetonitrile], for which the JAK2/JAK1 was greater than 10. With `N#CC[C@H]1CC[C@H](n2/c(=N/C#N)[nH]c3cnc4ccsc4c32)CC1.O=C(O)C(F)(F)F` [Example 25, {(2E)-1-[trans-4-(Cyanomethyl)cyclohexyl]-1,3-dihydro-2H-imidazo[4,5-d]thieno[3,2-b]pyridin-2-ylidene}cyanamide Trifluoroacetate], the JAK2/JAK1 is greater than 6. The result for `N#CC[C@H]1CC[C@H](n2c(C3CC3)nc3cnc4ccsc4c32)CC1` [Example 26, [trans-4-(2-Cyclopropyl-1H-imidazo[4,5-d]thieno[3,2-b]pyridin-1-yl)cyclohexyl]acetonitrile] reads greater than 10; that for `CC(C)c1nc2cnc3ccsc3c2n1[C@H]1CC[C@H](CC#N)CC1` [Example 27, [trans-4-(2-Isopropyl-1H-imidazo[4,5-d]thieno[3,2-b]pyridin-1-yl)cyclohexyl]acetonitrile], greater than 10. For `N#CC[C@H]1CC[C@H](n2c(C3CNC3)nc3cnc4ccsc4c32)CC1` [Example 28, [trans-4-(2-Azetidin-3-yl-1H-imidazo[4,5-d]thieno[3,2-b]pyridin-1-yl)cyclohexyl]acetonitrile], the JAK2/JAK1 is given as greater than 7.

On to `CN1CC(c2nc3cnc4ccsc4c3n2[C@H]2CC[C@H](CC#N)CC2)C1` [Example 29, {trans-4-[2-(1-Methylazetidin-3-yl)-1H-imidazo[4,5-d]thieno[3,2-b]pyridin-1-yl]cyclohexyl}acetonitrile], for which the JAK2/JAK1 was greater than 9.
